The values that follow come from ChEMBL document CHEMBL1201862, “PubChem BioAssay data set” (2004).

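Grown in 96-well plates, cells were treated for 48 hours with each compound at five concentrations. Insufficient inhibition: endpoint recorded as highest concentration tested. Here, GI50 denotes the concentration required for 50% inhibition of growth.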 The source made the active and inactive calls. No stated cut-off is given here; in the data, active = GI50 up to about 1.1 µM and inactive = higher.

Holding throughout (assay): growth of human tumour cells (NCI), 48 h
The subject of experiment [1] is NCI/ADR-RES.
The test system of experiment [2] is RPMI-8226.
Experiment [3] concerns CAKI-1.
Experiment [4] has as its system MOLT-4.
Experiment [5] concerns OVCAR-5.
Experiment [6] concerns HCC 2998.
For experiment [7], the system named is SF-268.
The test system of experiment [8] is U-251.
Experiment [9] concerns UACC-257.
Experiment [10] has as its system BT-549.
Experiment [11] relates to SK-MEL-2.
For experiment [12], the system named is 786-0.
For experiment [13], the system named is COLO 205.
Experiment [14] deals with M14.
In experiment [15] the test system is NCI-H522.
The subject of experiment [16] is Malme-3M.
For experiment [17], the system named is NCI-H226.
In experiment [18] the test system is SNB-19.
In experiment [19] the test system is SN12C.
The subject of experiment [20] is HOP-92.

On to `Cc1ccc(/N=N/C(=N/NC(=O)c2cc(Cl)ccc2O)c2ccc(N(CCC#N)CCC#N)cc2C)cc1`, for which the GI50 in experiment [1] is 38.4 µM (inactive); in experiment [2] it was 8.36 µM (inactive); in [3], 41.4 µM (inactive); in [4] it was 53.7 µM (inactive); in experiment [5], 41.5 µM (inactive); in experiment [6], 24.1 µM (inactive). The GI50 in [7] is 25.1 µM (inactive); in experiment [8], 18.2 µM (inactive); in experiment [9], 13.2 µM (inactive); in [10] it was 27.5 µM (inactive); in [11], 15.7 µM (inactive); in [12], 28.1 µM (inactive). The GI50 in [13] is 12.4 µM (inactive); in experiment [14], 30.6 µM (inactive); in [15], 8.95 µM (inactive); in [16], 20.6 µM (inactive); in experiment [17], 17.1 µM (inactive); in experiment [18], 25.5 µM (inactive). Also, the GI50 in [19] is 28.4 µM (inactive).
As to `O=C(Cc1ccccc1)NNc1nc(NNC(=O)c2ccncc2)nc(Nc2ccccc2)n1`, the GI50 in [1], in experiment [2], in experiment [3], in [4], in experiment [20] and in [6] was > 10 µM (inactive) each time. In addition, the GI50 in [7], in experiment [8], in experiment [9], in [10], in experiment [12] and in experiment [13] was > 10 µM (inactive) each time. Further, the GI50 in experiment [14], in [16] and in experiment [19] was > 10 µM (inactive) in each case.
As to `O=C(NO)c1ccc(OCc2ccccc2)cc1`, the GI50 in experiment [1] was 4 µM (inactive); in [2], 12 µM (inactive); in [3] it was 18.1 µM (inactive); in experiment [4], 15.3 µM (inactive); in experiment [20] it was 33.5 µM (inactive); in experiment [5] it was 27.4 µM (inactive). In addition, the GI50 is 22.6 µM (inactive) in [6]; 39.7 µM (inactive) in experiment [7]; 27.5 µM (inactive) in experiment [8]; 29.4 µM (inactive) in experiment [9]; 26.5 µM (inactive) in experiment [10]; 30.3 µM (inactive) in experiment [11]. The GI50 is 16.9 µM (inactive) in experiment [12]; 22.8 µM (inactive) in experiment [13]; 47.6 µM (inactive) in [14]; 9.62 µM (inactive) in experiment [15]; > 100 µM (inactive) in experiment [17]; 33.3 µM (inactive) in experiment [18]. For the same compound, the GI50 in experiment [19] was 43.4 µM (inactive).
Consider `O=c1[nH][nH]c(=O)n1Cc1cccc(Cn2c(=O)[nH][nH]c2=O)c1`, for which the GI50 in experiment [1], in experiment [2], in [3], in experiment [4], in experiment [5] and in experiment [6] was > 100 µM (inactive) each time. The GI50 in experiment [7], in [8], in experiment [9], in experiment [10], in experiment [11] and in experiment [12] was > 100 µM (inactive) in each case. For the same compound, the GI50 in [13], in [14], in experiment [15], in experiment [16], in experiment [17] and in experiment [18] was > 100 µM (inactive) in each case. Moreover, the GI50 in [19] is > 100 µM (inactive).
Turning to `Cc1nnc(N)nc1/C=C/c1c(O)ccc2ccccc12`, the GI50 in experiment [1] is 30.8 µM (inactive); in [2], 30.5 µM (inactive); in experiment [3] it was 36.4 µM (inactive); in [4], 22.5 µM (inactive); in experiment [20], 21.3 µM (inactive); in experiment [5], 26.5 µM (inactive). In addition, the GI50 is 19.1 µM (inactive) in experiment [6]; 28.7 µM (inactive) in experiment [7]; 38.7 µM (inactive) in experiment [8]; 32.2 µM (inactive) in [9]; 37.9 µM (inactive) in experiment [10]; 15.2 µM (inactive) in experiment [11]. Moreover, the GI50 was 32.4 µM (inactive) in experiment [12]; 44.4 µM (inactive) in experiment [13]; 19.4 µM (inactive) in [14]; 21.5 µM (inactive) in [17]; 27 µM (inactive) in experiment [18]; 37.5 µM (inactive) in experiment [19].
Turning to `CNC(=O)C1CCCN1C(=O)C(Cc1c[nH]cn1)NC(=O)C1CCC(=O)N1` (centres undefined), the GI50 in experiment [1], in experiment [2], in experiment [3], in [4], in [20] and in [5] was > 100 µM (inactive) in each case. The GI50 was > 100 µM (inactive) in experiment [6]; > 100 µM (inactive) in [7]; > 100 µM (inactive) in experiment [8]; > 100 µM (inactive) in experiment [10]; 85.5 µM (inactive) in experiment [12]; > 100 µM (inactive) in [13]. In addition, the GI50 in experiment [14], in experiment [15], in [16], in [17], in experiment [18] and in experiment [19] was > 100 µM (inactive) throughout.
Take `CN(C)c1c(C2CC(O)C(CO)O2)c(=O)c1=O` (centres undefined): the GI50 in experiment [1], in experiment [2], in experiment [4], in [20], in experiment [5] and in experiment [6] was > 100 µM (inactive) each time. The GI50 in [7], in [8], in [9], in experiment [10], in experiment [11] and in experiment [12] was > 100 µM (inactive) throughout. Moreover, the GI50 in [14] is > 100 µM (inactive); in [15], > 100 µM (inactive); in [17], 77.1 µM (inactive); in experiment [18] it was > 100 µM (inactive); in [19], > 100 µM (inactive).
For the compound `O=C1/C(=C\c2cccc(Oc3ccccc3)c2)S(=O)(=O)C(c2ccccc2)N1Cc1ccccc1` (centres undefined), the GI50 in experiment [1] is 19.4 µM (inactive); in experiment [3], 26.6 µM (inactive); in [4], 0.83 µM (active); in experiment [20], 19.3 µM (inactive); in experiment [5], 57 µM (inactive); in experiment [6] it was 28.7 µM (inactive). For the same compound, the GI50 in experiment [8] was 33.7 µM (inactive); in [9], 22.9 µM (inactive); in experiment [10], 29 µM (inactive); in experiment [11] it was 16.3 µM (inactive); in [12], 19.6 µM (inactive); in [13], 27 µM (inactive). Besides, the GI50 is 27.4 µM (inactive) in experiment [14]; 13.9 µM (inactive) in [15]; 18.4 µM (inactive) in experiment [16]; 21.4 µM (inactive) in experiment [18]; 26.6 µM (inactive) in experiment [19].
In the case of `OC(c1cccnc1)C(F)(F)c1nc2ccccc2o1` (centres undefined), the GI50 in [1], in experiment [2], in experiment [3], in [4], in experiment [20] and in experiment [6] was > 100 µM (inactive) in each case. Moreover, the GI50 in experiment [7], in experiment [8], in experiment [9], in experiment [10], in experiment [11] and in experiment [12] was > 100 µM (inactive) throughout. Further, the GI50 in experiment [13], in experiment [17] and in experiment [18] was > 100 µM (inactive) throughout.
In the case of `NC(=S)N/N=C1\CCc2ccccc2C1`, the GI50 in experiment [1], in [2], in [4], in [20], in experiment [5] and in experiment [6] was > 100 µM (inactive) throughout. Moreover, the GI50 in experiment [7], in experiment [8], in [9], in [10], in [12] and in [13] was > 100 µM (inactive) each time. Also, the GI50 was > 100 µM (inactive) in experiment [14]; 55.3 µM (inactive) in [15]; > 100 µM (inactive) in [16]; 32.2 µM (inactive) in experiment [17]; > 100 µM (inactive) in experiment [18]; > 100 µM (inactive) in experiment [19].
Turning to `O=C1c2c(Cl)c(Cl)c(Cl)c(Cl)c2C(=O)N1CCN(c1c(Cl)ssc1=O)c1c(Cl)ssc1=O`, the GI50 was 49.3 µM (inactive) in experiment [1]; 17.5 µM (inactive) in experiment [3]; 10.3 µM (inactive) in experiment [4]; 20.1 µM (inactive) in [20]; 50.1 µM (inactive) in [5]; 21.2 µM (inactive) in experiment [6]. Besides, the GI50 in experiment [7] is 71.9 µM (inactive); in [8] it was 95.9 µM (inactive); in [9], 16.9 µM (inactive); in experiment [10], 30.9 µM (inactive); in [11] it was 24.2 µM (inactive); in experiment [12], 18.2 µM (inactive). Besides, the GI50 in experiment [13] was 18.2 µM (inactive); in experiment [14], 21.5 µM (inactive); in [15], 23.2 µM (inactive); in experiment [16] it was 25.2 µM (inactive); in [17], > 100 µM (inactive); in [18], > 100 µM (inactive). The GI50 in experiment [19] was 23.4 µM (inactive).
